# Values of other authors, collected in patent US20230354819A1 (priority 2020, published 2023).
# Bridge positions count the residues as written; N and C are the ends. Square brackets hold non-standard residues; d marks the D form. Peptide text beside a SMILES is read from it. * marks the point of attachment. ξ: configuration not given here. Pentadecanoyl(3ξ-OH,15-Gua) = N=C(N)NCCCCCCCCCCCCC(O)CC(=O)*; d(aThr) = C[C@@H](O)[C@@H](N)C(=O)O; Thr(3ξ) = CC(O)[C@H](N)C(=O)O; ξY = NC(Cc1ccc(O)cc1)C(=O)O
# Columns and labels:
# [1] = test system: plant pathogenic fungi such as Fusarium oxysporum, Aspergillus niger, Aspergillus oryzae, and Penicillium thomii; conditions: J. Antibiotics 49(2), 129-135, 1996; 50(3), 220-228, 1997
# [2] = test system: Fusarium oxysporum; conditions: WO 2006/016558
# [3] = test system: Staphylococcus aureus; set-up: unit not given here; conditions: variety of clinically relevant fungi and gram-positive bacteria such a Staphylococcus aureus; ChemMedChem 7, 871-882, 2012
Compound,inhibition of plant pathogenic fungi [1],inhibition of growth of Fusarium oxysporum [2],MIC value range [3]
"CC1OC(=O)[C@@H](C)NC(=O)[C@@H](CC(N)=O)NC(=O)[C@@H]([C@H](C)O)NC(=O)C(Cc2ccc(O)cc2)NC(=O)[C@@H](C(C)C)NC(=O)[C@H]1NC(=O)CC(O)CCCCCCCCCCCCN=C(N)N (stereo partly shown) [fusaricidin C] ({Pentadecanoyl(3ξ-OH,15-Gua)}-[Thr(3ξ)][dV][ξY][dT][dN][dA]; ester 1-C)",inhibit plant pathogenic fungi,–,–
CC(C)[C@@H]1NC(=O)[C@@H](C(C)C)NC(=O)[C@@H](NC(=O)CC(O)CCCCCCCCCCCCN=C(N)N)C(C)OC(=O)[C@@H](C)NC(=O)[C@@H](CCC(N)=O)NC(=O)[C@@H]([C@H](C)O)NC1=O (stereo in doubt) [fusaricidin B],inhibit plant pathogenic fungi,inhibit growth,–
"CC(C)[C@@H]1NC(=O)[C@@H](C(C)C)NC(=O)[C@@H](NC(=O)CC(O)CCCCCCCCCCCCN=C(N)N)[C@@H](C)OC(=O)[C@@H](C)NC(=O)[C@@H](CC(N)=O)NC(=O)[C@@H]([C@@H](C)O)NC1=O (stereo partly shown) [fusaricidin A] ({Pentadecanoyl(3ξ-OH,15-Gua)}-T[dV]V[d(aThr)][dN][dA]; ester 1-C)",inhibit plant pathogenic fungi,inhibit growth,0.78-3.12
"CC1OC(=O)[C@@H](C)NC(=O)[C@@H](CCC(N)=O)NC(=O)[C@@H]([C@H](C)O)NC(=O)C(Cc2ccc(O)cc2)NC(=O)[C@@H](C(C)C)NC(=O)[C@H]1NC(=O)CC(O)CCCCCCCCCCCCN=C(N)N (stereo partly shown) [fusaricidin D] ({Pentadecanoyl(3ξ-OH,15-Gua)}-[Thr(3ξ)][dV][ξY][dT][dQ][dA]; ester 1-C)",inhibit plant pathogenic fungi,–,–
